Laboratory results reported in ChEMBL document CHEMBL1144253, “Pyrimidine containing RSV fusion inhibitors” (Bioorg Med Chem Lett, 2005).

Key:
Type in all cases: functional, cell-based
HFF [1] = assay: Inhibitory concentration against human cytomegalovirus strain Ad169 in human foreskin fibroblasts
HFF [2] = assay: Inhibitory concentration against human respiratory syncytial virus strain A2 in human foreskin fibroblasts
Vero = assay: Inhibitory concentration against herpes simplex 1 strain Patton in vero cells; conditions: Chlorocebus sabaeus

## NC(=O)CCN(CCC(N)=O)S(=O)(=O)c1cccc(Nc2nc(Cl)nc(Nc3ccc(-c4ccc(Nc5nc(Nc6cccc(S(=O)(=O)N(CCC(N)=O)CCC(N)=O)c6)nc(Nc6cccc(S(=O)(=O)N(CCC(N)=O)CCC(N)=O)c6)n5)cc4S(=O)(=O)O)c(S(=O)(=O)O)c3)n2)c1
HFF [1]
  IC50: 16.8 µM
HFF [2]
  IC50: 0.25 µM

## NC(=O)CCN(CCC(N)=O)S(=O)(=O)c1cccc(Nc2nc(Nc3cccc(S(=O)(=O)N(CCC(N)=O)CCC(N)=O)c3)nc(Nc3ccc(-c4ccc(Nc5nc(Nc6cccc(S(=O)(=O)N(CCC(N)=O)CCC(N)=O)c6)nc(Nc6cccc(S(=O)(=O)N(CCC(N)=O)CCC(N)=O)c6)n5)cc4S(=O)(=O)O)c(S(=O)(=O)O)c3)n2)c1
HFF [2]
  IC50: 0.08 µM

## NC(=O)CN(CC(N)=O)S(=O)(=O)c1cccc(Nc2nc(Nc3cccc(S(=O)(=O)N(CC(N)=O)CC(N)=O)c3)nc(Nc3ccc(-c4ccc(Nc5nc(Nc6cccc(S(=O)(=O)N(CC(N)=O)CC(N)=O)c6)nc(Nc6cccc(S(=O)(=O)N(CC(N)=O)CC(N)=O)c6)n5)cc4S(=O)(=O)O)c(S(=O)(=O)O)c3)n2)c1 [RF-1461]
HFF [1]
  IC50: 2.55 µM
HFF [2]
  IC50: 0.05 µM
Vero
  IC50: 7.72 µM

## O=S(=O)(O)c1cc(Nc2cc(Nc3cccc(S(=O)(=O)N(CCO)CCO)c3)nc(Nc3cccc(S(=O)(=O)N(CCO)CCO)c3)n2)ccc1-c1ccc(Nc2cc(Nc3cccc(S(=O)(=O)N(CCO)CCO)c3)nc(Nc3cccc(S(=O)(=O)N(CCO)CCO)c3)n2)cc1S(=O)(=O)O
HFF [1]
  IC50: 4.4 µM
HFF [2]
  IC50: 0.82 µM
Vero
  IC50: 16.8 µM

## O=S(=O)(O)c1cc(Nc2nc(Nc3cccc(S(=O)(=O)N(CCO)CCO)c3)nc(Nc3cccc(S(=O)(=O)N(CCO)CCO)c3)n2)ccc1-c1ccc(Nc2nc(Nc3cccc(S(=O)(=O)N(CCO)CCO)c3)nc(Nc3cccc(S(=O)(=O)N(CCO)CCO)c3)n2)cc1S(=O)(=O)O
HFF [1]
  IC50: 2.3 µM
HFF [2]
  IC50: 0.09 µM
Vero
  IC50: 14.7 µM

## NC(=O)CN(CC(N)=O)S(=O)(=O)c1cccc(Nc2nc(Cl)cc(Nc3ccc(-c4ccc(Nc5cc(Cl)nc(Cl)n5)cc4S(=O)(=O)O)c(S(=O)(=O)O)c3)n2)c1
HFF [1]
  IC50: 24.9 µM
HFF [2]
  IC50: 16.7 µM
Vero
  IC50: 47.2 µM

## NC(=O)CCCN(CCCC(N)=O)S(=O)(=O)c1cccc(Nc2nc(Nc3cccc(S(=O)(=O)N(CCCC(N)=O)CCCC(N)=O)c3)nc(Nc3ccc(-c4ccc(Nc5nc(Nc6cccc(S(=O)(=O)N(CCCC(N)=O)CCCC(N)=O)c6)nc(Nc6cccc(S(=O)(=O)N(CCCC(N)=O)CCCC(N)=O)c6)n5)cc4S(=O)(=O)O)c(S(=O)(=O)O)c3)n2)c1
HFF [2]
  IC50: 0.1 µM

## NC(=O)CN(CC(N)=O)S(=O)(=O)c1cccc(Nc2cc(Nc3ccc(-c4ccc(Nc5cc(Nc6cccc(S(=O)(=O)N(CC(N)=O)CC(N)=O)c6)nc(Nc6cccc(S(=O)(=O)N(CC(N)=O)CC(N)=O)c6)n5)cc4S(=O)(=O)O)c(S(=O)(=O)O)c3)nc(Cl)n2)c1
HFF [1]
  IC50: 7 µM
HFF [2]
  IC50: 1.8 µM
Vero
  IC50: 18.9 µM

## NC(=O)CCN(CCC(N)=O)S(=O)(=O)c1cccc(Nc2nc(Nc3cccc(S(=O)(=O)N(CCC(N)=O)CCC(N)=O)c3)nc(Nc3ccc(/C=C/c4ccc(Nc5nc(Nc6cccc(S(=O)(=O)N(CCC(N)=O)CCC(N)=O)c6)nc(Nc6cccc(S(=O)(=O)N(CCC(N)=O)CCC(N)=O)c6)n5)cc4S(=O)(=O)O)c(S(=O)(=O)O)c3)n2)c1
HFF [2]
  IC50: 0.15 µM

## NC(=O)CN(CC(N)=O)S(=O)(=O)c1cccc(Nc2cc(Nc3ccc(-c4ccc(Nc5nc(Nc6cccc(S(=O)(=O)N(CC(N)=O)CC(N)=O)c6)ncc5Cl)cc4S(=O)(=O)O)c(S(=O)(=O)O)c3)nc(Cl)n2)c1
HFF [1]
  IC50: 13.8 µM
HFF [2]
  IC50: 3.5 µM
Vero
  IC50: 25.4 µM
